Laboratory results published in patent US7414068B2, “Benzopyran derivatives substituted with secondary amines including tetrazole, method for the preparation thereof and pharmaceutical compositions containing them” (Dongbu Hannong Chemical Co., Ltd., priority 2002, dated 2008).

How the values were obtained:
diabetic rats = assay: Effect on motor nerve conduction velocity in diabetic rats; format: in vivo, rat; settings: 50 mg/kg orally once a day
Method: Diabetes was induced with injection of Streptozotocin (65 mg/kg) in rats, then test compounds dissolved in 2 ml of media (physiological saline:ethanol:tween 80=1:1:1) were orally administrated once a day. Rats were anesthetized with pentotal, then the sciatic nerve was exposed to measure motor nerve conduction velocity. The nerve was stimulated at two points. The first stimulus electrode was inserted at proximal end, and second electrode stimulus electrode was inserted at the distal notch. The coaxia needle electrode was inserted into interdigitala muscle, then the muscle action potential induced by two points stimulation. The conduction velocity was calculated by dividing the distance between two stimulus points by the latency differences. Lipoic acid (100 mg/kg) was used in comparison with the compound of the present invention in recovery of impaired Motor Nerve Conduction Velocity (MNCV) in diabetic rats. The recovery (%) of Motor Nerve Conduction was calculated according to the following mathematical formula 1.

[1] = test system: isolated ischemic rat heart; assay: Cardioprotective effect in ischemic heart models of rats (Langendorff); settings: 10 μM
Outline: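 Langendorff-perfused male rat hearts (Krebs-Henseleit, 85 mmHg, 37 °C) pretreated 10 min with compound or vehicle (0.04% DMSO), then 30 min global ischemia and 30 min reperfusion. Read-outs: LVDP, HR, CF, rate-pressure product, time to contracture (first 5 mmHg EDP rise), LDH release.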

retina ganglion cell = assay: Protective effect on neuronal cells damage by axotomy of optic nerve; format: in vivo, rat; settings: 20 μM, injected vitreously, after axotomy of optic nerve
Method: Test compounds were dissolved in DMSO to prepare stock solution (100 mM), which was diluted with physiological saline to the 20 μM. 10 μl of […] was injected vitreously.
Adult rats were anesthetized with chloral hydrate (400 mg/Kg), then optic nerve was exposed by bulbar conjunctiva. Thereafter, nerve corresponding to 0.5 mm or 3 mm from eye ball was excided, respectively. Or through upper eyelid cutaneous amputation was accomplished, then part of lacrimal gland was removed. […] The optic nerve was excised about 5 mm back from eye ball. Blood vessels of retina supplying blood to retina was not impaired. Condition of blood vessels of retina was checked with funduscope. Fluorogold (Fluorochrome Inc. 5% in PBS (phosphate buffered solution) was administrated to Half of test group, in the retrograde after axotomy of optic nerve. To investigate cell survival of the ganglion after axotomy, eyes was removed from rats, then retina was isolated in 3 days, 1 week, 2 weeks, 4 weeks, 2 months, 4 months, and 6 months. The isolated retina was investigated by transmission electron microscope. For quantitative analysis, at the same time tissue of retina was prepared. The prepared tissue was investigated by immunochemical dyeing or fluorescent microscope to which 530˜560 nm filter was installed.

[2] = Acute oral toxicity test in rats; settings: SD, rat, in vivo, single oral dose, suspended in 0.5% methyl cellulose, read-out: lethal dose (LD50) for oral administration
Outline: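 Six-week-old SPF SD rats, two per group, received compounds orally as suspensions in 0.5% methyl cellulose. Endpoints were clinical signs, body weight, mortality, haematology, serum biochemistry and macroscopic necropsy of organs and tissues.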

SMILES: COC(OC)[C@@]1(C)Oc2ccc(N)cc2[C@H](N(Cc2nnn(C)n2)c2ccc(Cl)cc2)[C@H]1O [Example 11, (2S,3R,4S)-6-amino-4-[N-(4-chlorophenyl)-N-(2-methyl-2H-tetrazol-5-ylmethyl)amino]-3-hydroxy-2-methyl-2-dimethoxymethyl-3,4-dihydro-2H-1-benzopyran]
- Recovery(%) of motor nerve conduction (diabetic rats): 45.8%
- MNCV (diabetic rats; streptozotocin diabetic rats): 54 m/s
- EDP (mmHg) ([1]; after 30 min global ischemia and reperfusion): 47.6 mmHg
- LDH (u/g) ([1]; reperfusion LDH release): 16.5 u/g
- LVDP X HR (%) ([1]; reperfusion, % of pre-treatment DP): 24.8%
- TTC ([1]; time to contracture during global ischemia): 19.9 min
- Survival of the ganglion cell(%) (retina ganglion cell): 43%
- Survival of the ganglion cell(%) (retina ganglion cell; listed as compound of formula 11): 43%
- LD50 [2]: > 2000 mg/kg
